Patent publication US12667584B2, “Adenosine analog and its use in regulating the circadian clock” (NATIONAL INSTITUTE OF BIOLOGICAL SCIENCES, BEIJING, priority 2017, dated 2026)

Tests used:
C57BL/6j mice = assay: Wheel running jet-lag experiment, 8 h phase advance or delay; assay type: in vivo, mouse
Method: Wheel running experiment: Male C57Bj/6 mice at 7 w old were purchased from the Nanjing Biomedical Research Institute of Nanjing University introduced from Jackson Laboratory, housed in individually wheel-running cage in a temperature- and humidity-controlled SPF facility, with ad libitum access to food and water. The animals were entrained under 12 h light/dark photoperiod for two weeks to synchronize the endogenous circadian clock of the mice to the ambient light-dark cycle, light intensity is about 50˜100 lux. After synchronization, light-dark cycles were 8-hr phase-advanced or phase-delayed. On the day of light-dark cycle was shifted advance, mice were firstly fasted at CT 3, then 15 mg/kg bw CA03, 15 and 30 mg/kg bw pro-CA03, 15 and 30 mg/kg bw pro-CA04 or DMSO were intraperitoneal injection at CT 12, and light on time (CT 0) was shifted from 7 am to 11 pm), finally re-feed and inject drug again at CT 23 of the old light-dark cycle. CA03 and pro-CA04 were firstly dissolved in DMSO to the concentration of 200 μg/μl, then dilute with saline to the final concentration of 1000 μg/ml for intraperitoneal injection. Pro-03 was firstly dissolved in DMSO to the concentration of 200 μg/μl, then dilute with 2% tween80 (in sterilized water) to the final concentration of 1000 μg/ml for intraperitoneal injection. On the day of light-dark cycle was shifted delayed, mice were firstly fasted at ZT 3, then 15 mg/kg bw CA03, 15 and 30 mg/kg bw pro-CA03, 15 and 30 mg/kg bw pro-CA04 or DMSO were intraperitoneal injection at CT 12, and light off time (CT12) was shifted from […] to 3 am), finally re-feed and inject drug again at CT 23 of the old light-dark cycle. Locomotor activity was recorded in 10-min bins wheel running (Actimetrics), and the data obtained were analysed with Clocklab software (Actimetrics). All animal experimental procedures were performed in accordance with the protocol approved by the Institutional Animal Care and Usage Committee (IACUC) of the National Institute of Biological Sciences, Beijing.
Under a standard jet-lag protocol {Yamaguchi, 2013}, wild-type C57BL/6j mice usually take ˜10 d to adapt to 8 h phase advance. […] Similarly, the drug treated mice adapt faster to the phase delay (FIG. 2D&2E).
To test whether cordycepin function in vivo, we firstly tested luciferase signal level by live imaging of Per2:LUC mice after intraperitoneal injection of 15 mg/kg cordycepin or DMSO. We found cordycepin induce more than 4 folds increase of luciferase signal in liver when compared with DMSO control (A). […] We also reconfirmed endogenous transcription rate of core clock genes by measuring the pre-mRNA with qPCR in the liver (B). We examined RRE genes (including Bmal1, Clock, Npas2, Cry1 and Nfil3), internal control genes (including Gapdh, Tbp and Actin) and E-box genes (including Per1, Per2, Dbp and Nr1d1). We designed at least 2 primers for each gene. […] Prior evaluation the jet-leg cure ability of cordycepin, we detected whether cordycepin and it's prodrug pro-CA03 can penetrate BBB. We injected cordycepin or pro-CA03 via tail vein and time course sampled CSF and analyzed cordycepin pro-CA03 level with HPLC-MASS method. […] Finally we evaluated the jet-leg cure ability of cordycepin, pro-CA03 and Pro-CA04 with mice behavioral experiment. Wild-type C57BL/6j mice typically take ˜10 days to adapt to an 8 h phase advance. […]

Per2:luc U2OS cells = assay: Real-time monitoring of circadian oscillation in lumicycle, Per2:luc U2OS cells; assay type: cell-based, human
Method: Cell culture, drug treatment and Real-Time Monitoring of Circadian Oscillations: Per2-Luc reporter U2OS cells (D15) and Bmal1-Luc reporter U2OS cells (C26) cells were kept in DMEM medium (Gibco), supplemented with 10% FBS (Gibco) and 1% penicillin streptomycin mixture (Gibco). For Circadian Oscillation monitored with lumicycle (Actimetrics), cells were seeded at the density of 10^6 per 3.5 cm dish (Z688851-30EA). The medium was changed into XM medium (PH7.2, 10 mM HEPES, 350 mg/I bicarbonate, 1×B27, 100 IU/ml penicillin, 100 μg/ml streptomycin, 10 μg/ml gentamycin, and 100 μM d-Luciferin) 2 days after cell seeding. 3.5 cm dish was then sealed with high-vacuum grease (Dow Corning) and microscope cover glass, and transferred into lumicycle which was placed in an incubator (37° C.). For Drug treatment, 3.5 cm dish was taken out from lumicycle quickly at indicated time. After chemical was added into the medium, the dish was sealed again and put back into lumicycle. For Circadian Oscillation monitored with Tecan (Perkinelmer), cells were seeded at the density of […] per well for 384-well plate (CLS3610-48EA). 2 days later, the medium was changed into premixed XM medium with different chemicals with or without pentostatin (5 μg/ml). The plate was then sealing with sealing film (Sangon Biotech) and put into Tecan. Data from cells were collected in the Tecan luminometer at 37° C. for 5˜7 days.
The inventors conducted a chemical screen using the human osteosarcoma U2OS cell line so as to discover small molecules that modify the phase of the intracellular clock in mammals. In the primary screen, the inventors used two reporter lines of U2OS harboring a luciferase gene under control of either Per2 or Bmal1 promoter (named Per2-dLuc or Bmal1-dLuc cells), and set the threshold for at least 6 h phase-changes with no apparent amplitude-reduction in both cell lines. […] An institutional pilot chemical library consisting of approximately 10,000 small molecules was applied in this study. […] The inventors set to allow a free-run of the clock before administration of the compound over the course in order to eliminate the possibility that this phase-changing phenomenon was due to a combinative phenotype of medium-change plus the compound effect.
Circadian clock is a transcriptional based feedback loop, however different clock genes contain different cis-element and may show different response to the same stimulation. […] Since the close similar structure with adenosine and potential function of inhibiting transcription by preventing mRNA elongation, we tested whether adenosine and other deoxynucleoside could shift circadian phase. […] Therefore we further tested whether cordycepin utilize adenosine transporter to enter cell or utilize adenosine deaminase to degrade.
One prominent character of zeitgeiber is phase dependent function. Therefore, we further tested whether cordycepin also has the character.

**Q.** How did the “adaptation time in phase-delay assay” value (C57BL/6j mice; DMSO 6 days) turn out when Nc1ncnc2c1ncn2[C@@H]1O[C@H](CO)C[C@H]1O [Cordycepin, 3′-deoxy-adenosine] was run?
**A.** 3 days

**Q.** What about the “adaptation time to 8 h phase advance” value (C57BL/6j mice; twice injection, DMSO ~10 d) of the same molecule?
**A.** 4 days

**Q.** What about the phase shift (Per2:luc U2OS cells; 100 μM applied at CT10) of the same molecule?
**A.** 12 h

**Q.** And the phase shift (Per2:luc U2OS cells; 100 μM applied at CT 20)?
**A.** ~0 h

**Q.** And the Per2-dLuc phase shift (Per2:luc U2OS cells; applied at Per2 peak, 100 μM)?
**A.** 12 h

**Q.** And the Per2-dLuc phase shift (Per2:luc U2OS cells; applied at Per2 trough)?
**A.** 0 h

**Q.** And the “amplitude of Per2-dLuc” value (Per2:luc U2OS cells; applied at Per2 trough)?
**A.** increase the amplitude
